Where “and” joins values, the source holds several entries; their conditions need not be identical. Identical values can stand only once.
How the values were obtained:
[1] = Anion binding constants by UV-Vis titration, PF6^−; settings: 20% MeOH/CHCl3; for logβ2: 2:1 sandwich; for K2/K1: PF6^−, positive cooperativity
Method: (§1) FIG. 2B depicts an exemplary plot of anion binding constants obtained from equilibrium restricted factor analysis (D. A. Griend, D. K. Bediako, M. J. DeVries, N. A. DeJong, L. P. Heeringa, Inorg Chem 2008, 47, 656-662) of UV-Vis titration data (20% MeOH/CHCl3). Salts added as TBA^+ with exception of FeCl4^− added as the 1-ethyl-3-methylimidazolium salt.
(§2) The tricarb-anion stability constants were determined from UV-Vis titrations and evaluated using equilibrium restricted factor analysis (D. A. Griend, D. K. Bediako, M. J. DeVries, N. A. DeJong, L. P. Heeringa, Inorg Chem 2008, 47, 656-662) as implemented with Sivvu by employing the following equilibria: tricarb+X^− ? tricarb·X^−K1 (1) tricarb·X^−+tricarb ? tricarb2·X^−K2 (2) 2 tricarb+X^− ? tricarb2·X^−β2 (3)

[2] = Anion binding constants by UV-Vis titration, FeCl4^−; settings: 20% MeOH/CHCl3; for K2/K1: FeCl4^−, positive cooperativity
Method: as §1, §2

[3] = Cyclic voltammetry in solution; assay type: physicochemical; settings: 1×10^−3 M, 0.1 M tetrabutylammonium hexafluorophosphate, glassy carbon working electrode, chloroform, room temperature
From the text: FIG. 7 depicts a representative current-voltage response curve recorded using cyclic voltammetry of tricarb of Formula (IB) in solution. […] Conditions: [tricarb of Formula (IB)]=1×10^−3 M, 0.1 M tetrabutylammonium hexafluorophosphate, glassy carbon working electrode, platinum counter electrode, chloroform, room temperature, Ar degassed.

[4] = Anion binding constants by UV-Vis titration, ClO4^−; settings: 20% MeOH/CHCl3; for logβ2: 2:1 sandwich; for K2/K1: ClO4^−, positive cooperativity
Method: as §1, §2

[5] = Anion binding constants by UV-Vis titration, ReO4^−; settings: 20% MeOH/CHCl3; for K2/K1: ReO4^−, positive cooperativity
Method: as §1, §2

[6] = Anion binding constants by UV-Vis titration, SbF6^−; settings: 20% MeOH/CHCl3; for logβ2: 2:1 sandwich; for K2/K1: SbF6^−, positive cooperativity
Method: as §1, §2

[7] = Solution phase self-association, variable concentration UV-Vis, isodesmic equal-K model; assay type: physicochemical
From the text: Solution phase self-association was examined using variable concentration ^1H NMR and UV-Vis spectra. All aromatic ^1H NMR peaks shift upfield (FIG. 3B) with concentration (10×10^−6 M−2×10^−3 M) consistent with p stacking (R. B. Martin, Chem. Rev. 1996, 96, 3043-3064). UV-Vis spectroscopy was used to quantify the extent of self-association (S. A. Jenekhe, L. Lu, M. M. Alam, Macromolecules 2001, 34, 7315-7324) (0.7 to 24×10^−6 M, FIG. 3C). An isodesmic equal-K model (R. B. Martin, Chem. Rev. 1996, 96, 3043-3064) was used to quantify self-association (KE) to give KE=300,000±10,000 M^−1 in 20% MeOH/CHCl3 (ε=10.4). The self-association is high relative to other macrocycles (W. Zhang, J. S. Moore, Angew. Chem. Int. Ed. 2006, 45, 4416-4439) and believed to be driven by solvophobic effects and dipolar coupling. Consistent with dipolar coupling, use of pure CHCl3 with a lower polarity (ε=4.8), increases KE to 790,000±30,000 M^−1 (S.-L. Lee, Z. Yuan, L. Chen, K. S. Mali, K. Müllen, S. De Feyter, J Am. Chem. Soc. 2014, 136, 4117-4120; S.-L. Lee, Z. Yuan, L. Chen, K. S. Mali, K. Müllen, S. De Feyter, J. Am. Chem. Soc. 2014; P. Samori, N. Severin, C. D. Simpson, K. Müllen, J. P. Rabe, J. Am. Chem. Soc. 2002, 124, 9454-9457).

[8] = Anion binding constants by UV-Vis titration, I^−; settings: 20% MeOH/CHCl3; for K2/K1: I^−, positive cooperativity
Method: as §1, §2

[9] = PF6^− as tetrabutylammonium salt
[10] = listed as tricarb of Formula (I)
[11] = FeCl4^− as 1-ethyl-3-methylimidazolium salt
[12] = ClO4^− as tetrabutylammonium salt
[13] = ReO4^− as tetrabutylammonium salt
[14] = SbF6^− as tetrabutylammonium salt

CCCCCCCCCCn1c2ccc3cc2c2cc(ccc21)n1cc(nn1)c1ccc2c(c1)c1cc(ccc1n2CCCCCCCCCC)n1cc(nn1)c1ccc2c(c1)c1cc(ccc1n2CCCCCCCCCC)n1cc3nn1 [tricarb of Formula (IB), tridecyl-tricarbazolo-triazolophane]
logK1 [1, 9]: 4.46 ± 0.01 | logK2 [1, 9]: 6.94 ± 0.01 | logβ2 ([1]; PF6^− as tetrabutylammonium salt, listed as Tricarb of Formula (IB)): 11.4 | logβ2 ([1]; PF6^− as tetrabutylammonium salt, listed as tricarb): 11.40 ± 0.02 | K2/K1 ([1]; listed as tricarb): 300 ± 60 | K2/K1 [1, 10]: 300 | logK1 [2, 11]: 4.0 ± 0.1 | logK2 [2, 11]: 3.7 ± 0.2 | logβ2 ([2]; FeCl4^− as 1-ethyl-3-methylimidazolium salt, 2:1 sandwich): 7.7 ± 0.3 | K2/K1 ([2]; listed as tricarb): 5.2 ± 0.2 | K2/K1 [2, 10]: ~5 | half-wave oxidation potential E1/2 [3]: 0.8 V vs Ag/AgCl | peak potentials [3]: 0.95 V and 0.65 V | logK1 [4, 12]: 4.04 ± 0.01 | logK2 [4, 12]: 5.87 ± 0.01 | logβ2 ([4]; ClO4^− as tetrabutylammonium salt, listed as Tricarb of Formula (IB)): 10 | logβ2 ([4]; ClO4^− as tetrabutylammonium salt, listed as tricarb): 10.04 ± 0.02 | K2/K1 ([4]; listed as tricarb): 67 ± 3 | K2/K1 [4, 10]: ~70 | logK1 [5, 13]: 3.8 ± 0.1 | logK2 [5, 13]: 6.2 ± 0.1 | logβ2 ([5]; ReO4^− as tetrabutylammonium salt, 2:1 sandwich): 10.0 ± 0.2 | K2/K1 ([5]; listed as tricarb): 200 ± 100 | K2/K1 [5, 10]: 200 | logK1 [6, 14]: 5.2 ± 0.2 | logK2 [6, 14]: 6.4 ± 0.2 | logβ2 ([6]; SbF6^− as tetrabutylammonium salt, listed as Tricarb of Formula (IB)): 11.6 | logβ2 ([6]; SbF6^− as tetrabutylammonium salt, listed as tricarb): 11.6 ± 0.4 | K2/K1 ([6]; listed as tricarb): 30 ± 20 | K2/K1 [6, 10]: ~30 | self-association (KE) ([7]; 20% MeOH/CHCl3 (ε=10.4), 0.7 to 24×10^−6 M): 300,000±10,000 M^−1 | self-association (KE) ([7]; pure CHCl3 (ε=4.8)): 790,000±30,000 M^−1 | logβ2 ([8]; I^− as tetrabutylammonium salt, 2:1 sandwich): 9.3 ± 0.3 | logK1 ([8]; I^− as tetrabutylammonium salt, tricarb+X^− = tricarb·X^−): 4.3 ± 0.1 | logK2 ([8]; I^− as tetrabutylammonium salt, tricarb·X^−+tricarb = tricarb2·X^−): 5.1 ± 0.2 | K2/K1 ([8]; listed as tricarb): 6 ± 3 | K2/K1 [8, 10]: ~5

— patent US10202395B2, “Macrocycle with repeating triazole-carbazole units” (INDIANA UNIVERSITY RESEARCH & TECHNOLOGY CORPORATION, priority 2015, dated 2019)
